# Experimental data taken from PubChem BioAssay (NCI).
#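 Dose response: 5 concentrations. Exposure: 48 h. Format: 96-well plates. Endpoint: linear interpolation; highest concentration if not reached. Abbreviation: GI50, concentration required for 50% inhibition of growth. TGI: concentration producing complete growth inhibition.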
# Assays:
# Experiment in all cases: NCI-60 cell line screen, 48 h
# [1] = test system: SK-MEL-28 melanoma
# [2] = test system: OVCAR-4 ovarian
# [3] = test system: U251 CNS
# [4] = test system: HT29 colon
# [5] = test system: NCI/ADR-RES ovarian
# [6] = test system: DU-145 prostate
# [7] = test system: MCF7 breast
# [8] = test system: MDA-MB-435
# [9] = test system: 786-0 renal
# [10] = test system: K-562 leukemia
# [11] = test system: SNB-19 CNS
# [12] = test system: SNB-75 CNS
# [13] = test system: RXF 393 renal
# [14] = test system: SN12C renal
# [15] = test system: SR leukemia
# [16] = test system: HS 578T breast
# [17] = test system: COLO 205 colon
# [18] = test system: HCT-15 colon
# [19] = test system: OVCAR-8 ovarian
# [20] = test system: SF-295 CNS
# [21] = test system: A498 renal
# [22] = test system: CCRF-CEM leukemia
# [23] = test system: RPMI-8226 leukemia
# [24] = test system: HCT-116 colon
# [25] = test system: MDA-MB-231 breast
# [26] = test system: OVCAR-5 ovarian
# [27] = test system: HCC-2998 colon
# [28] = test system: SW-620 colon
# [29] = test system: SF-539 CNS
# [30] = test system: MALME-3M melanoma
# [31] = test system: BT-549 breast
# [32] = test system: SK-OV-3 ovarian
# [33] = test system: UACC-257 melanoma
# [34] = test system: PC-3 prostate
# [35] = test system: IGROV1 ovarian
# [36] = test system: HL-60(TB) leukemia
# [37] = test system: NCI-H226 lung
# [38] = test system: SK-MEL-2 melanoma
# [39] = test system: UO-31 renal
# [40] = test system: ACHN renal
# [41] = test system: SK-MEL-5 melanoma
# [42] = test system: SF-268 CNS
# [43] = test system: LOX IMVI melanoma
# [44] = test system: T-47D breast
# [45] = test system: A549 NSCLC
# [46] = test system: MOLT-4 leukemia
# [47] = test system: CAKI-1 renal
# [48] = test system: UACC-62 melanoma
# [49] = test system: HOP-62 NSCLC
# [50] = test system: NCI-H522 lung
# [51] = test system: OVCAR-3 ovarian
# [52] = test system: EKVX NSCLC
# [53] = test system: NCI-H23 lung
# [54] = test system: M14 melanoma
# [55] = test system: HOP-92 NSCLC
# [56] = test system: NCI-H460 lung
# [57] = test system: KM12 colon
# [58] = test system: TK-10 renal
structure (smiles),measurement,setting,value
CC(C)(C)Nc1nc2c(OCCc3ccccc3)cccn2c1-c1ccccc1Cl,GI50,[1],3.45 µM
same,TGI,[1],13.1 µM
same,GI50,[2],3.61 µM
same,TGI,[2],14.9 µM
same,GI50,[3],3.14 µM
same,TGI,[3],12.5 µM
same,GI50,[4],4.62 µM
same,TGI,[4],30.1 µM
same,GI50,[5],6.4 µM
same,TGI,[5],20.5 µM
same,GI50,[6],7.9 µM
same,TGI,[6],24.6 µM
same,GI50,[7],3.35 µM
same,TGI,[7],14.7 µM
same,GI50,[8],3.29 µM
same,TGI,[8],11.2 µM
same,GI50,[9],4.84 µM
same,TGI,[9],18.1 µM
same,GI50,[10],3.25 µM
same,TGI,[10],18.1 µM
same,GI50,[11],3.35 µM
same,TGI,[11],13.1 µM
same,GI50,[12],1.58 µM
same,TGI,[12],13.9 µM
same,GI50,[13],9.26 µM
same,TGI,[13],22.3 µM
same,GI50,[14],3.03 µM
same,TGI,[14],12.7 µM
same,GI50,[15],3.89 µM
same,TGI,[15],43.4 µM
same,GI50,[16],4.05 µM
same,TGI,[16],21.4 µM
same,GI50,[17],3.49 µM
same,TGI,[17],10.6 µM
same,GI50,[18],4.12 µM
same,TGI,[18],15.9 µM
same,GI50,[19],4.36 µM
same,TGI,[19],20 µM
same,GI50,[20],3.19 µM
same,TGI,[20],12.6 µM
same,GI50,[21],11.8 µM
same,TGI,[21],24.3 µM
same,GI50,[22],3.56 µM
same,TGI,[22],16 µM
same,GI50,[23],2.78 µM
same,TGI,[23],7.5 µM
same,GI50,[24],4.01 µM
same,TGI,[24],15.3 µM
same,GI50,[25],5.95 µM
same,TGI,[25],19 µM
same,GI50,[26],11.9 µM
same,TGI,[26],24.7 µM
same,GI50,[27],3.51 µM
same,TGI,[27],12.5 µM
same,GI50,[28],4.91 µM
same,TGI,[28],17.7 µM
same,GI50,[29],10.7 µM
same,TGI,[29],22.5 µM
same,GI50,[30],2.23 µM
same,TGI,[30],5.52 µM
same,GI50,[31],2.61 µM
same,TGI,[31],10.2 µM
same,GI50,[32],3.82 µM
same,TGI,[32],16.9 µM
same,GI50,[33],3.52 µM
same,TGI,[33],13 µM
same,GI50,[34],3.37 µM
same,TGI,[34],15.5 µM
same,GI50,[35],5.05 µM
same,TGI,[35],17.8 µM
same,GI50,[36],2.42 µM
same,TGI,[36],5.68 µM
same,GI50,[37],3.52 µM
same,TGI,[37],16.6 µM
same,GI50,[38],2.72 µM
same,TGI,[38],8.33 µM
same,GI50,[39],3.2 µM
same,TGI,[39],16.8 µM
same,GI50,[40],8.82 µM
same,TGI,[40],21 µM
same,GI50,[41],2.01 µM
same,TGI,[41],4.43 µM
same,GI50,[42],4.52 µM
same,TGI,[42],18.8 µM
same,GI50,[43],4.08 µM
same,TGI,[43],15.8 µM
same,GI50,[44],2.35 µM
same,TGI,[44],17.1 µM
same,GI50,[45],4.88 µM
same,TGI,[45],27.1 µM
same,GI50,[46],3.63 µM
same,TGI,[46],17 µM
same,GI50,[47],5.89 µM
same,TGI,[47],20.2 µM
same,GI50,[48],2.22 µM
same,TGI,[48],6.55 µM
same,GI50,[49],4.82 µM
same,TGI,[49],18.9 µM
same,GI50,[50],3.75 µM
same,TGI,[50],15.3 µM
same,GI50,[51],2.93 µM
same,TGI,[51],9.75 µM
same,GI50,[52],3.19 µM
same,TGI,[52],12.8 µM
same,GI50,[53],3.67 µM
same,TGI,[53],13.8 µM
same,GI50,[54],3.9 µM
same,TGI,[54],15.3 µM
same,GI50,[55],2.36 µM
same,TGI,[55],7.93 µM
same,GI50,[56],3.76 µM
same,TGI,[56],13.4 µM
same,GI50,[57],3.58 µM
same,TGI,[57],12.4 µM
same,GI50,[58],6.49 µM
same,TGI,[58],20.4 µM
